Assay results reported in PMC6138237, “Machine intelligence decrypts β-lapachone as an allosteric 5-lipoxygenase inhibitor” (Chemical Science, 2018).
Several values for one entry are separate records, joined by “and”; a condition that tells them apart may be missing. Equal entries are not always repeated. Where two headings read alike, the source gives them in different places.

Legend:
15-LO = 15-LO inhibition in intact human neutrophils; settings: read-out: IC50 (15-LO), without DTT
5-LO [1] = target: T1, 5-LO (Homo sapiens, UniProt P09917); experiment: 5-LO product formation in neutrophil homogenates
T1 sequence (P09917 1-674): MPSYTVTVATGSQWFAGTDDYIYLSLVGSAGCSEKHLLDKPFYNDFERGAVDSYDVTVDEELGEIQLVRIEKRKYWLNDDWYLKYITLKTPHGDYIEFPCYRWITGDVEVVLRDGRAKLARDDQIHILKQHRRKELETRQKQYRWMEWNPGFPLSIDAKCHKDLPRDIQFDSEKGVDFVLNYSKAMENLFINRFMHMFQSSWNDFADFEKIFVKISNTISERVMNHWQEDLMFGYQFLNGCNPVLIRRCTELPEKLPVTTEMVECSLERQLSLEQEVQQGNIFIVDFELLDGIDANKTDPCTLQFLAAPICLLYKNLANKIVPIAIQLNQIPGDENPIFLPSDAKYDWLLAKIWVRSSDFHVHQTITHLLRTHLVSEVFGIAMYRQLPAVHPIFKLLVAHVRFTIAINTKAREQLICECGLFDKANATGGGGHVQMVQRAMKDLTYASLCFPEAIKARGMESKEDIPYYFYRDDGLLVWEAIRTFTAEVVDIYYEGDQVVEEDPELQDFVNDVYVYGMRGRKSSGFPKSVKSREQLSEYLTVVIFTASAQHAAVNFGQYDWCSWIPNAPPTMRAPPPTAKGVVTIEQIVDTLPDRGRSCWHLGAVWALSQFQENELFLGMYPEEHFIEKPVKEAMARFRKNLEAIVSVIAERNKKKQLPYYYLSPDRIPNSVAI

FGFR3 = FGFR3 (Homo sapiens, UniProt P22607); experiment: ExpresS Diversity Kinase Profile, Cerep (LANCE): FGFR3; format: biochemical
FGFR3, sequence (P22607 23-806): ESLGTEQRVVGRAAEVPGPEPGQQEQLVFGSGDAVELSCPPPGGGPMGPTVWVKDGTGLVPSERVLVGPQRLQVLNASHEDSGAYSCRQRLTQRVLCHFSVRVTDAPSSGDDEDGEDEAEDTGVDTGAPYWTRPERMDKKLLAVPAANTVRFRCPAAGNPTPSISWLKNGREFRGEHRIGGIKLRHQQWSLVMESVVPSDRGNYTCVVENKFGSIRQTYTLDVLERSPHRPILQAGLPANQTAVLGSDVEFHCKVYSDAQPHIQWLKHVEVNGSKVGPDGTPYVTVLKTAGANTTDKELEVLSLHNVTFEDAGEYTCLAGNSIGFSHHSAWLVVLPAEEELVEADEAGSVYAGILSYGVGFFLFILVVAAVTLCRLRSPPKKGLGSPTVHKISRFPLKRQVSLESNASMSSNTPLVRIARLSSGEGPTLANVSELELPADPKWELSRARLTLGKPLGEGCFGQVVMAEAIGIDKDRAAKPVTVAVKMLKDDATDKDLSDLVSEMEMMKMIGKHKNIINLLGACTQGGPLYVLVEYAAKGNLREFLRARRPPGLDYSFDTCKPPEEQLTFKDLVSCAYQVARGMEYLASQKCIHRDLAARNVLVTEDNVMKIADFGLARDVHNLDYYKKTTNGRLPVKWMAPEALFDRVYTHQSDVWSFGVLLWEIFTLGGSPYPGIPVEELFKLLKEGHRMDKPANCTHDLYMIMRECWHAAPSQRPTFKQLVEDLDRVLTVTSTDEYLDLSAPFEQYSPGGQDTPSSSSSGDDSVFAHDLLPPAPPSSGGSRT

ERK2 = ERK2 (Homo sapiens, UniProt P28482); experiment: ExpresS Diversity Kinase Profile, Cerep (LANCE): ERK2; format: biochemical
EP2 = EP2 (Homo sapiens, UniProt P43116); experiment: EP2 functional agonist assay, Cerep (cAMP, HTRF)
EP2, sequence (P43116 whole entry): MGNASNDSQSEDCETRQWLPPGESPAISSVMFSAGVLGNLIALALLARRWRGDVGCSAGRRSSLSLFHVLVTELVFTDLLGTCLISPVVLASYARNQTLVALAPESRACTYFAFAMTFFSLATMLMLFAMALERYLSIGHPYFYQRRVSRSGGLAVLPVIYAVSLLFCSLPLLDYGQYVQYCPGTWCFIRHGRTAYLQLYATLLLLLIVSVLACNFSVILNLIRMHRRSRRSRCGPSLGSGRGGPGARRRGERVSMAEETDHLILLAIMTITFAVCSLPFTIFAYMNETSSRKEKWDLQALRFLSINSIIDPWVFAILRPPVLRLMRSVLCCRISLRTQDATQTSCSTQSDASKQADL

12-LO = target: T2, 12-LO (Homo sapiens, UniProt P18054); experiment: 12-LO inhibition in intact human neutrophils
T2 sequence (P18054 1-663): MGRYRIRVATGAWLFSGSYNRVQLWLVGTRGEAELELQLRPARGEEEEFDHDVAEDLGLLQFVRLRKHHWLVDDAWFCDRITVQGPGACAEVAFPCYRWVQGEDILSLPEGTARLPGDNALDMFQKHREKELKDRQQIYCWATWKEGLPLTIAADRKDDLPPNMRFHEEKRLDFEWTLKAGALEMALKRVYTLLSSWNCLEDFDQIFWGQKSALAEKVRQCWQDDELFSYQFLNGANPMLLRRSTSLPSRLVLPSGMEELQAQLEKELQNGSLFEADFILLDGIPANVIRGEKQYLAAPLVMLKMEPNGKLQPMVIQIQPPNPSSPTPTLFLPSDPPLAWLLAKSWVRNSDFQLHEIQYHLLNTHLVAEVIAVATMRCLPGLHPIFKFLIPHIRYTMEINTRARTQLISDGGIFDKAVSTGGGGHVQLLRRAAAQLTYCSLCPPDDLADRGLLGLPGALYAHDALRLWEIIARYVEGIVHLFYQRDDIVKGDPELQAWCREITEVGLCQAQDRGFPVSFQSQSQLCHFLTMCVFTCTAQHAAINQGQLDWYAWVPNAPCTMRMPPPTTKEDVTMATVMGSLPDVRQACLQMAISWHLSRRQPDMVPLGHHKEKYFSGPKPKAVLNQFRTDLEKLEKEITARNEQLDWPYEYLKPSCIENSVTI

FGFR1 = FGFR1 (Homo sapiens, UniProt P11362); experiment: ExpresS Diversity Kinase Profile, Cerep (LANCE): FGFR1; format: biochemical
FGFR1, sequence (P11362 22-822): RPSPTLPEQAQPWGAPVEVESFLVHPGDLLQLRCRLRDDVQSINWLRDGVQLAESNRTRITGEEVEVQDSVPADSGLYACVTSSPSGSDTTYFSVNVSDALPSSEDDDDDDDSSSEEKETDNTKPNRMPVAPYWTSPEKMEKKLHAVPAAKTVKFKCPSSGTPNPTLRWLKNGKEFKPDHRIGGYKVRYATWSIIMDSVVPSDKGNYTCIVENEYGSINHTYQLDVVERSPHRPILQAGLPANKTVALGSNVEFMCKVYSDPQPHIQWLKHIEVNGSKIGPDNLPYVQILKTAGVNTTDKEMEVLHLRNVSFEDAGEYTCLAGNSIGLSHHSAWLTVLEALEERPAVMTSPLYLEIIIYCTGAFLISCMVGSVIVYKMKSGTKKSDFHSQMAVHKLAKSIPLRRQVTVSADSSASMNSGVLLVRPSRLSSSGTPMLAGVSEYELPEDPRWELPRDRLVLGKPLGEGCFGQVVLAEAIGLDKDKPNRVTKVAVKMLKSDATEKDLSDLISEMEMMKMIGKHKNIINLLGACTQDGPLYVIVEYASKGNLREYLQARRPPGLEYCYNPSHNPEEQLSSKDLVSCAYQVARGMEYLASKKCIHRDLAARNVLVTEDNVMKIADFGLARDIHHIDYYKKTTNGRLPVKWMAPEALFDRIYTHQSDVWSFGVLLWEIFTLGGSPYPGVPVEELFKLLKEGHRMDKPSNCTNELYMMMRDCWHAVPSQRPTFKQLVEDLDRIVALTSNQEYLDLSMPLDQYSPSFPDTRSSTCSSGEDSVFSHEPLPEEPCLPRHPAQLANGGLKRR

EP4 = EP4 (Homo sapiens, UniProt P35408); experiment: EP4 functional agonist assay, Cerep (cAMP, HTRF)
EP4, sequence (P35408 whole entry): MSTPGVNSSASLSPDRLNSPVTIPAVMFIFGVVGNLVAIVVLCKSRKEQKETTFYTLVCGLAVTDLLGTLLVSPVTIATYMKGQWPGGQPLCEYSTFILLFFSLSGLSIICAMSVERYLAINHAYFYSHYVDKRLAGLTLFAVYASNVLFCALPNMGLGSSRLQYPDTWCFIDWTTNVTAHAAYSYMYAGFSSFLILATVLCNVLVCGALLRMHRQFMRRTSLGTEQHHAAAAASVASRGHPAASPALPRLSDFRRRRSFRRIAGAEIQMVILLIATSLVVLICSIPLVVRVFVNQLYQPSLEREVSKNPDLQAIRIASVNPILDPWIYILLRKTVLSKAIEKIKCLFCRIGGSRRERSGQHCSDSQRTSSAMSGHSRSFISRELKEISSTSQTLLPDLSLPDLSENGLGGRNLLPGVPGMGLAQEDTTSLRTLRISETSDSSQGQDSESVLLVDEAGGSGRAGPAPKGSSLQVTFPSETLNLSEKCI

HL-60 cells = experiment: HL-60 cell viability assay (Alamar Blue, 48 hours); settings: Homo sapiens, HL-60, 48 h
PLK1 = PLK1 (Homo sapiens, UniProt P53350); experiment: ExpresS Diversity Kinase Profile, Cerep (LANCE): PLK1; format: biochemical
PLK1, sequence (P53350 whole entry): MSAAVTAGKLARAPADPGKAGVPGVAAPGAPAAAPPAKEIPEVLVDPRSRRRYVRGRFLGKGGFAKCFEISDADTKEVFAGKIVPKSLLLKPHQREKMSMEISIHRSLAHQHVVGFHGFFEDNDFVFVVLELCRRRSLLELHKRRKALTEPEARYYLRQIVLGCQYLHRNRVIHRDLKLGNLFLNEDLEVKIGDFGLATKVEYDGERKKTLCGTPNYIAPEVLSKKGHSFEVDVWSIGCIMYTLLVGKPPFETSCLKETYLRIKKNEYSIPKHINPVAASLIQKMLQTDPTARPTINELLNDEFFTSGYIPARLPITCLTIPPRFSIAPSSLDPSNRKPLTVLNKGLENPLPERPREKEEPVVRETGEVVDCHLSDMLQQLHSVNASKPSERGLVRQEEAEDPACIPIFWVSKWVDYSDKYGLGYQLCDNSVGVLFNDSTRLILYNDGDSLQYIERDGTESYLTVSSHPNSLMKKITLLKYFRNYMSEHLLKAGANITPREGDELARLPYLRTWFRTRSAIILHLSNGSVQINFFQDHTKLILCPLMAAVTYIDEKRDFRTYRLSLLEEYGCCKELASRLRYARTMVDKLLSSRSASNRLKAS

Abl = Abl (Homo sapiens, UniProt P00519); experiment: ExpresS Diversity Kinase Profile, Cerep (LANCE): Abl; format: biochemical
Abl, sequence (P00519 whole entry): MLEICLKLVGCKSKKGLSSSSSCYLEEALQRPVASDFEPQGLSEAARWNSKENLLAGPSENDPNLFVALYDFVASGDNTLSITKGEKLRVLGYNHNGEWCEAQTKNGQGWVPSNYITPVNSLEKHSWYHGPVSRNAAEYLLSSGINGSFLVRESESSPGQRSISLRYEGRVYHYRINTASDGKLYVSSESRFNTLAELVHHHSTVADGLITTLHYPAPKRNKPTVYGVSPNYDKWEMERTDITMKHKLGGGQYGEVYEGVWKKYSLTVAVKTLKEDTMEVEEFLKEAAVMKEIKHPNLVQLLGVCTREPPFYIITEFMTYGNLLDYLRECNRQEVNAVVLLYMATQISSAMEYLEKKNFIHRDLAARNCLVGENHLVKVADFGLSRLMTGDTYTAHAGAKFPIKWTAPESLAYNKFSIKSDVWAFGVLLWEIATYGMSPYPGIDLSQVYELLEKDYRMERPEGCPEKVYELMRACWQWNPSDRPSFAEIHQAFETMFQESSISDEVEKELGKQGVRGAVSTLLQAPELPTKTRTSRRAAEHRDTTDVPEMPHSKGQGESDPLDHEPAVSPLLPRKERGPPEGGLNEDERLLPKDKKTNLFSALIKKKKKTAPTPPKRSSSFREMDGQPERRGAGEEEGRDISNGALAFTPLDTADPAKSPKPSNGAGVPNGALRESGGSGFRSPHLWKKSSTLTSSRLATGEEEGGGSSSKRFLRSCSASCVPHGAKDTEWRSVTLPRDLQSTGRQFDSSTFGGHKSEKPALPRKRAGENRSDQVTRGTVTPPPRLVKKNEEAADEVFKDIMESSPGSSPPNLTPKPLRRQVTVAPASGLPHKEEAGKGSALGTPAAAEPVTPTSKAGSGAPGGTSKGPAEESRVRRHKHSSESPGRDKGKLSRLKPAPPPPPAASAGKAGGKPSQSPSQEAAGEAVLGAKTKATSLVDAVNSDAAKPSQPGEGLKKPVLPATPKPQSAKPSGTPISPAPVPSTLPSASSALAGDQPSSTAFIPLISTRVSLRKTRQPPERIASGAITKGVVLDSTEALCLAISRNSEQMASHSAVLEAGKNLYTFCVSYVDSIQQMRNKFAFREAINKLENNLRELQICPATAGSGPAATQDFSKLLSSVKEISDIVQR

5-LO [2] = target: T1, 5-LO; experiment: 5-LO product formation in intact human neutrophils stimulated with A23187 plus arachidonic acid
PAK4 = PAK4 (Homo sapiens, UniProt O96013); experiment: ExpresS Diversity Kinase Profile, Cerep (LANCE): PAK4; format: biochemical
PAK4, sequence (O96013 whole entry): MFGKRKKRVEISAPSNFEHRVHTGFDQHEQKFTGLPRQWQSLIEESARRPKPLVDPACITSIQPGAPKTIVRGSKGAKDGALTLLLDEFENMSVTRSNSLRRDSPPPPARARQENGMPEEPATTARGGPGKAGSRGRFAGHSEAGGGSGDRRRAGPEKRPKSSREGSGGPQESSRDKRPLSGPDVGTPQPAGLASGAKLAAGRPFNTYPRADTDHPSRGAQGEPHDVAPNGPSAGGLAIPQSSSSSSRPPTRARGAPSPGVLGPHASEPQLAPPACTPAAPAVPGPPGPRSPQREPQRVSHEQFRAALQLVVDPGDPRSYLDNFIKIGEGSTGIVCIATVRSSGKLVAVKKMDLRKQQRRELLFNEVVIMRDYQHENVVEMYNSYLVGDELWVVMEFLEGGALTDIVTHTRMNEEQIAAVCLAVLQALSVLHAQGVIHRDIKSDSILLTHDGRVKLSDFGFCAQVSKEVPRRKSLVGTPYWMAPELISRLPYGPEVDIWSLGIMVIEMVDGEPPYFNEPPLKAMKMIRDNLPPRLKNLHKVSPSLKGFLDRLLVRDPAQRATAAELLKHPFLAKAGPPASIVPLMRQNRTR

[3] = Flag: Interference, read-out: % Inhibition of control values, 1st measurement
[4] = Flag: Interference, read-out: % Inhibition of control values, 2nd measurement
[5] = n = 2, Flag: Interference, read-out: % Inhibition of control values, Mean
[6] = n = 2, read-out: % Inhibition of control values, Mean
[7] = read-out: % Inhibition of control values, 1st measurement
[8] = read-out: % Inhibition of control values, 2nd measurement
[9] = read-out: % of control values, 1st measurement
[10] = read-out: % of control values, 2nd measurement
[11] = read-out: % of control values, Mean

SMILES: CC1(C)CCC2=C(O1)c1ccccc1C(=O)C2=O [β-Lapachone]
- IC50 (15-LO): > 30 µM
- IC50 (5-LO [1]; IC50 (with DTT), neutrophil homogenates with 1 mM DTT, n = 3): 0.09 µM and 0.085 µM
- IC50 (5-LO [1]; IC50 (without DTT), neutrophil homogenates without DTT, n = 3): 5.2 µM
- IC50 (5-LO [1]; IC50, neutrophil homogenates with 1 mM dithiothreitol): 0.0855 µM
- inhibition at 150 µM (FGFR3; [3]): 76.5%
- inhibition at 150 µM (FGFR3; [4]): 85.1%
- inhibition at 150 µM (FGFR3; [5]): 80.8%
- inhibition at 150 µM (ERK2; [6]): 45.9%
- inhibition at 150 µM (ERK2; [7]): 44.8%
- inhibition at 150 µM (ERK2; [8]): 46.9%
- remaining activity at 150 µM (EP2; [9]): 12.3%
- remaining activity at 150 µM (EP2; [10]): 14.8%
- remaining activity at 150 µM (EP2; [11]): 13.5%
- IC50 (12-LO): > 30 µM
- inhibition at 150 µM (FGFR1; [3]): 51.5%
- inhibition at 150 µM (FGFR1; [4]): 60.5%
- inhibition at 150 µM (FGFR1; [5]): 56%
- IC50 (EP4): ~100 µM
- remaining activity at 150 µM (EP4; [9]): 54.6%
- remaining activity at 150 µM (EP4; [10]): 51.7%
- remaining activity at 150 µM (EP4; [11]): 53.1%
- IC50 (HL-60 cells; read-out: IC50 (control)): 0.39 µM
- IC50 (HL-60 cells; read-out: IC50 (differentiated)): 0.18 µM
- inhibition at 150 µM (PLK1; [6]): 60%
- inhibition at 150 µM (PLK1; [7]): 61.1%
- inhibition at 150 µM (PLK1; [8]): 58.9%
- inhibition at 150 µM (Abl; [6]): 42.4%
- inhibition at 150 µM (Abl; [7]): 42.9%
- inhibition at 150 µM (Abl; [8]): 41.8%
- IC50 (5-LO [2]; IC50 (5-LO), intact human neutrophils, without DTT, n = 3): 8.6 µM
- IC50 (5-LO [2]; IC50, intact human neutrophils supplemented with 1 mM DTT, n = 4): 0.42 µM
- inhibition at 150 µM (PAK4; [6]): -1.9%
- inhibition at 150 µM (PAK4; [7]): -3.7%
- inhibition at 150 µM (PAK4; [8]): 0%
